# Several values for one entry are separate records, joined by “and”; a condition that tells them apart may be missing. Equal entries are not always repeated.
# Experiment: CaMKII Cell-Based Activity: CaMKII activity in neonatal rat ventricular myocytes (NRVM) was measured by monitoring the phosphorylation level of phospholamban using high-content imaging. NRVMs were plated in a clear bottom 384-well plate in medium supplemented with 10% fetal bovine serum (FBS) and incubated at 37° C., 5% CO2 overnight. The medium was changed to a serum-free medium and compounds were dosed to the cells. The cells were incubated at 37° C., 5% CO2 for 4 hours and were then treated with 100 nM ATX-II (Alomone Labs) to activate CaMKII. 10 minutes after the addition of ATX-II, the cells were fixed with 4% formaldehyde followed by permeabilization with 0.1% triton X100. The fixed cells were stained with an anti-phospho-phospholamban primary antibody (Santa Cruz Biotechnology) and an Alexa488-labeled anti-rabbit IgG secondary antibody (Life Technologies Corporation) as well as Hoechst 33342 (Life Technologies Corporation). The cells were imaged using an ArrayScan VTI (Cellomics) and analyzed for cells containing a positive fluorescent signal at 485 nm, reported as % responder. The % responders were plotted against the compound concentration to determine the compounds EC50.
row,EC50,Compound
1,654 nM,CCN[C@@H](C)CNC(=O)c1cc(-c2cnn3ccc(-c4cccs4)nc23)nc(N2CC[C@H]2C(=O)NC)c1
2,125 nM,O=C(NC[C@@H]1CCCN1)c1ccnc(-c2cnn3ccc(-c4cccs4)nc23)c1
3,64.2 nM,CCN(CC)[C@@H](C)CNC(=O)c1cc(OCCc2cnccn2)nc(-c2cnn3ccc(-c4cccs4)nc23)c1
4,13600 nM,CCN(CC)[C@@H](C)CNC(=O)c1cc(NCC2COC2)nc(-c2cnn3ccc(-c4cccs4)nc23)c1
5,281 nM,CCN(CC)[C@@H](C)CNC(=O)c1cc(-c2cnn3ccc(-c4cccs4)nc23)nc(N2CC[C@H]2C(=O)N2CC(S(C)(=O)=O)C2)c1
6,147 nM,CCN(CC)[C@@H](C)CNC(=O)c1cc(-c2cnn3ccc(-c4cccs4)nc23)nc(N2CC[C@H]2C(=O)N2CC(NS(C)(=O)=O)C2)c1
7,57.2 nM,CCN(CC)[C@@H](C)CNC(=O)c1cc(-c2cnn3ccc(-c4cccs4)nc23)nc(N2CC(C(C)(C)O)C2)c1
8,40.8 nM,CCN(CC)[C@@H](C)CNC(=O)c1cc(-c2cnn3ccc(-c4cccs4)nc23)nc(N(C)C)c1
9,10.7 nM,CCN(CC)[C@@H](C)CNC(=O)c1cc(-c2cnn3ccc(-c4cccs4)nc23)nc(N2CC[C@H]2C(=O)N(C)C)c1
10,69.3 nM,CCN(CC)[C@@H](C)CNC(=O)c1cc(-c2cnn3ccc(-c4cccs4)nc23)nc(N2CC[C@H](C(=O)NC)C2)c1
11,103 nM,CCN(CC)C(C)CNC(=O)c1ccnc(-c2cnn3ccc(-c4ccccc4)nc23)c1 (stereo not drawn)
12,443 nM and 149 nM,C[C@@H](CNC(=O)c1ccnc(-c2cnn3ccc(-c4cccs4)nc23)c1)NCC(F)F
13,43.5 nM,CCN(CC)[C@@H](C)CNC(=O)c1cc(-c2cnn3ccc(-c4cccs4)nc23)nc(N2CCO[C@H](CO)C2)c1
14,27.4 nM,CCN(CC)[C@@H](C)CNC(=O)c1cc(NC(=O)C2CC2)nc(-c2cnn3ccc(-c4cccs4)nc23)c1
15,54.3 nM,CCN(CC)[C@@H](C)CNC(=O)c1cc(NCc2cc[nH]n2)nc(-c2cnn3ccc(-c4cccs4)nc23)c1
16,519 nM,CCN(CC)[C@@H](C)CNC(=O)c1cc(-c2cnn3ccc(-c4cncnc4)nc23)nc(N2CC(OC)C2)c1
17,75.2 nM,CCN(CC)[C@@H](C)CNC(=O)c1cc(N[C@H](C)CO)nc(-c2cnn3ccc(-c4cccs4)nc23)c1
18,115 nM,CCN(CC)[C@@H](C)CNC(=O)c1cc(-c2cnn3ccc(-c4cccs4)nc23)nc(N2CCC(C(N)=O)CC2)c1
19,21.8 nM,CNc1cnc(-c2cnn3ccc(-c4ccccc4)nc23)cc1C(=O)N1CCCC[C@@H]1CN
20,779 nM,C[C@@H](CNC(=O)c1ccnc(-c2cnn3ccc(-c4ccccc4)nc23)c1)NCc1ncccn1
21,14.9 nM,CCN(CC)[C@@H](C)CNC(=O)c1cc(-c2cnn3ccc(-c4ccsc4)nc23)nc(N2CC(OC)C2)c1
22,33.7 nM,NC[C@H]1CCCCN1C(=O)c1cc(Cl)nc(-c2cnn3ccc(-c4ccccc4)nc23)c1
23,284 nM,CCN[C@@H](C)CNC(=O)c1cc(C)nc(-c2cnn3ccc(-c4ccccc4)nc23)c1
24,316 nM,NC[C@H]1CC(F)(F)CN1C(=O)c1ccnc(-c2cnn3ccc(-c4cccs4)nc23)c1

row,EC50,Compound
1,108 nM,CCN(CC)[C@@H](C)CNC(=O)c1cc(NCC(=O)NC)nc(-c2cnn3ccc(-c4cccs4)nc23)c1
2,43.3 nM,CCN[C@@H](CC)CNC(=O)c1ccnc(-c2cnn3ccc(-c4cccs4)nc23)c1
3,66.4 nM,Cc1cnc(-c2cnn3ccc(-c4ccccc4)nc23)cc1C(=O)N1CCCC[C@@H]1[C@@H](C)N
4,71.7 nM,N[C@@H]1CCC[C@H]2CCCN(C(=O)c3ccnc(-c4cnn5ccc(-c6ccccc6)nc45)c3)[C@H]21
5,84.9 nM,CCN(CC)[C@@H](C)CNC(=O)c1cc(-c2cnn3ccc(-c4cccs4)nc23)nc(N2CC[C@H]2C(=O)NCCO)c1
6,815 nM,CCN(CC)[C@@H](C)CNC(=O)c1cc(-c2cnn3ccc(-c4cccs4)nc23)nc(N2CCC[C@@H]2C(=O)NC)c1
7,99.2 nM,CCC[C@@]1(CNC(=O)c2ccnc(-c3cnn4ccc(-c5cccs5)nc34)c2)CCCN1
8,6.81 nM,O=C(c1ccnc(-c2cnn3ccc(-c4ccccc4)nc23)c1)N1CCCC[C@@H]1[C@@H]1CCCN1
9,67 nM,CCN(CC)[C@@H](C)CNC(=O)c1cc(-c2cnn3ccc(-c4cccs4)nc23)nc(N2CCNCC2)c1
10,45.6 nM,C[C@H](N)[C@@H]1CCCCN1C(=O)c1ccnc(-c2cnn3ccc(-c4ccccc4)nc23)c1
11,24.2 nM,CCN(CC)[C@@H](C)CNC(=O)c1cc(NC2CCOCC2)nc(-c2cnn3ccc(-c4cccs4)nc23)c1
12,37.8 nM,CCN(CC)[C@@H](C)CNC(=O)c1cc(OCCCOC)nc(-c2cnn3ccc(-c4cccs4)nc23)c1
13,145 nM,COc1cc(C(=O)N2CC[C@H](N)C2)cc(-c2cnn3ccc(-c4cccs4)nc23)n1
14,22 nM,CCN(CC)[C@@H](C)CNC(=O)c1cncc(-c2cnn3ccc(-c4cccs4)nc23)c1
15,29.4 nM,CCN(CC)[C@@H](C)CNC(=O)c1cc(-c2cnn3ccc(-c4cccs4)nc23)nc(N2CC[C@H]2C(=O)N2CC(F)(F)C2)c1
16,51 nM,CCN(CC)[C@@H](C)CNC(=O)c1cc(-c2cnn3ccc(-c4cccs4)nc23)nc(N2CC(S(=O)(=O)NC3CC3)C2)c1
17,154 nM,COC1CN(c2cc(C(=O)N3CC[C@H](N)C3)cc(-c3cnn4ccc(-c5cccs5)nc34)n2)C1
18,37.2 nM,CCN(CC)C(CNC(=O)c1ccnc(-c2cnn3ccc(-c4ccccc4)nc23)c1)C(C)C (stereo not drawn)
19,121 nM,CCN(CC)[C@@H](C)CNC(=O)c1cc(-c2cnn3ccc(-c4cccs4)nc23)nc(N2CCn3ccnc3C2)c1
20,152 nM,CCN(CC)[C@@H](C)CNC(=O)c1cc(-c2cnn3ccc(-c4cccs4)nc23)nc(N2CC[C@H]2C(=O)N2CC(O)C2)c1
21,33.3 nM,Cc1cnc(-c2cnn3ccc(-c4ccccc4)nc23)cc1C(=O)N1CCCC[C@@H]1CN
22,69.9 nM,CCN(CC)[C@@H](C)CNC(=O)c1cc(-c2cnn3ccc(-c4cccs4)nc23)nc(N2CC(NC)C2)c1
23,334 nM,N[C@@H](CO)CNC(=O)c1ccnc(-c2cnn3ccc(-c4ccccc4)nc23)c1
24,181 nM,CCN1CCC[C@H]1CNC(=O)c1cc(-c2cnn3ccc(-c4cccs4)nc23)nc(N2CC(OC)C2)c1

row,EC50,Compound
1,48.5 nM,O=C(c1ccnc(-c2cnn3ccc(-c4ccccc4)nc23)c1)N1CCC2CNCC21 (stereo not drawn)
2,37.8 nM,"CC[C@@H](CNC(=O)c1cc(-c2cnn3ccc(-c4cccs4)nc23)nc(N2CC[C@H]2C(=O)NC)c1)N(CC)CC (single isomer, unassigned)"
3,129 nM,CCN(CC)[C@@H](C)CNC(=O)c1cc(N[C@@H](C)C(=O)NC)nc(-c2cnn3ccc(-c4cccs4)nc23)c1
4,514 nM,CCN(CC)[C@@H](C)CNC(=O)c1cc(-c2cnn3ccc(-c4cccs4)nc23)nc(N2C[C@@H]3C[C@H]2CO3)c1
5,145 nM,CCN[C@@H](C)CNC(=O)c1cc(-c2cnn3ccc(-c4ccccc4)nc23)nc(N2CC(OC)C2)c1
6,27.1 nM,CCN(CC)[C@@H](C)CNC(=O)c1cc(NC[C@H](C)O)nc(-c2cnn3ccc(-c4cccs4)nc23)c1
7,261 nM,COC1CN(c2cc(C(=O)NC[C@@H]3CCCN3)cc(-c3cnn4ccc(-c5cccs5)nc34)n2)C1
8,46.6 nM,CC(C)(C)c1cc(C(=O)N2CCCC[C@@H]2CN)cc(-c2cnn3ccc(-c4ccccc4)nc23)n1
9,45.9 nM,CCN(CC)[C@@H](C)CNC(=O)c1cc(-c2cnn3ccc(-c4cccs4)nc23)nc(N2CCC[C@@H]2CO)c1
10,23.4 nM,CCN(CC)[C@@H](C)CNC(=O)c1cc(NCC2(C)COC2)nc(-c2cnn3ccc(-c4cccs4)nc23)c1
11,250 nM,CCN(CC)[C@@H](C)CNC(=O)c1cc(-c2cnn3ccc(-c4cccs4)nc23)nc(N2C[C@H](O)[C@@H](O)C2)c1
12,2480 nM,C[C@H](N)CNC(=O)c1cc(-c2cnn3ccc(-c4cccs4)nc23)nc(N2CC(O)C2)c1
13,126 nM,CCN(CC)[C@@H](C)CNC(=O)c1cc(NS(=O)(=O)CC)nc(-c2cnn3ccc(-c4cccs4)nc23)c1
14,259 nM,CCN(CC)[C@@H](C)CNC(=O)c1cc(-c2cnn3ccc(-c4cccs4)nc23)nc(N2CCC[C@H]2C(N)=O)c1
15,43.6 nM,CCN(CC)[C@@H](C)CNC(=O)c1cc(-c2cnn3ccc(-c4cccs4)nc23)nc(N2CCN(C(C)=O)CC2)c1
16,841 nM,CN(C)c1cc(C(=O)N2CC[C@H](N)C2)cc(-c2cnn3ccc(-c4ccccc4)nc23)n1
17,79 nM,CCN(CC)[C@@H](C)CNC(=O)c1cc(-c2cnn3ccc(-c4cccs4)nc23)nc(N2CC[C@H]2C(=O)N2CC(C)(C)C2)c1
18,46.8 nM,CCNC(CC)CNC(=O)c1ccnc(-c2cnn3ccc(-c4ccccc4)nc23)c1 (stereo not drawn)
19,59 nM,CCN(CC)[C@@H](C)CNC(=O)c1cc(NCCN(C)C)nc(-c2cnn3ccc(-c4cccs4)nc23)c1
20,31.9 nM,CCN(CC)[C@@H](C)CNC(=O)c1cc(NCCCOC)nc(-c2cnn3ccc(-c4cccs4)nc23)c1
21,316 nM,COc1cc(C(=O)N2CCCC[C@@H]2CN)cc(-c2cnn3ccc(-c4ccccc4)nc23)n1
22,49 nM,CN(C)c1cc(C(=O)N2CCCC[C@@H]2CN)cc(-c2cnn3ccc(-c4cccs4)nc23)n1
23,66.9 nM,O=C(NC[C@]1(CC2CC2)CCCN1)c1ccnc(-c2cnn3ccc(-c4cccs4)nc23)c1

row,Compound,EC50
1,N[C@H]1C[C@@H]2CCC[C@H]1N2C(=O)c1ccnc(-c2cnn3ccc(-c4ccccc4)nc23)c1,74 nM
2,O=C(c1ccnc(-c2cnn3ccc(-c4cccs4)nc23)c1)N1CC2CCC(C1)NC2 (stereo not drawn),95.4 nM
3,Nc1cc(C(=O)N2C3CCNCC2CC3)cc(-c2cnn3ccc(-c4ccccc4)nc23)n1 (stereo not drawn),606 nM
4,O=C(c1ccnc(-c2cnn3ccc(-c4cccs4)nc23)c1)N1CC2CCC[C@@H](C1)NC2,54.3 nM
5,O=C(c1ccnc(-c2cnn3ccc(-c4ccccc4)nc23)c1)N1C2CCCC1CNCC2 (stereo not drawn),51.6 nM
6,COC1CN(c2cc(C(=O)N3C4CC[C@@H]3CCNC4)cc(-c3cnn4ccc(-c5ccccc5)nc34)n2)C1,272 nM
7,COC1CN(c2cc(C(=O)N3[C@H]4CCNC[C@@H]3CC4)cc(-c3cnn4ccc(-c5cccs5)nc34)n2)C1,148 nM

# Source: ChEMBL document CHEMBL5725801, “Fused heterocyclic compounds as CaM kinase inhibitors” (2018)
